Results from patent publication US6833378B2, “Corticotropin releasing factor antagonists” (Pfizer Inc, priority 2000, dated 2004).
Where a name gives a salt, the structure may show the parent alone.

| SMILES | melting point |
| --- | --- |
| CCC(CC)Oc1nc(C)nc(Nc2c(C)cc(C)cc2C)c1CO [Example 161, [4-(1-Ethyl-propoxy)-2-methyl-6-(2,4,6-trimethyl-phenylamino)-pyrimidin-5-yl]-methanol] | 121 to 123 °C |
| CCC(CC)Oc1cc(C)nc(Nc2c(C)cc(C)cc2C)c1CNC(=O)CCl [Example 75, 2-Chloro-N-[4-(1-ethyl-propoxy)-6-methyl-2-(2,4,6-trimethyl-phenylamino)-pyridin-3-ylmethyl]-acetamide] | 142 to 144 °C |
| CC[C@H]1COC(=O)N1c1cc(C)nc(Oc2c(C)cc(Cl)cc2C)c1C(=O)OC [Example 18, 2-(4-Chloro-2,6-dimethyl-phenoxy)-4-(S)-(4-ethyl-2-oxo-oxazolidin-3-yl)-6-methyl-nicotinic acid methyl ester] | 144 to 145.5 °C |
| CCC(CC)Oc1cc(C)nc(Nc2c(C)cc(C)cc2C)c1C(=O)n1ccnc1 [Example 70, [4-(1-Ethyl-propoxy)-6-methyl-2-(2,4,6-trimethyl-phenylamino)-pyridin-3-yl]-imidazol-1-yl-methanone] | 120 to 122 °C |
| CCC(CC)Oc1cc(C)nc(Nc2c(C)cc(C)cc2C)c1C(N)=O (as salt: HCl) [Example 78, 4-(1-Ethyl-propoxy)-6-methyl-2-(2,4,6-trimethyl-phenylamino)-nicotinamide] | 185 to 187 °C |
| CCC(CC)Oc1cc(C)nc(Nc2c(C)cc(C)cc2C)c1C(=O)N(C)C (as salt: HCl) [Example 80, 4-(1-Ethyl-propoxy)-6,N,N-trimethyl-2-(2,4,6-trimethyl-phenylamino)-nicotinamide] | 197 to 200 °C |
| CCC(CC)Oc1cc(C)nc(Nc2c(C)cc(C)cc2C)c1CC(C(=O)OC)C(=O)OC [Example 72, 2-[4-(1-Ethyl-propoxy)-6-methyl-2-(2,4,6-trimethyl-phenylamino)-pyridin-3-ylmethyl]-malonic acid dimethyl ester] | 96 to 98 °C |
| CCC(CC)Oc1cc(C)nc2c1n(C)c(=O)n2-c1c(C)cc(C)cc1C [Example 167, 7-(1-Ethyl-propoxy)-1,5-dimethyl-3-(2,4,6-trimethyl-phenyl)-1,3-dihydro-imidazo[4,5-b]pyridin-2-one] | 151 to 153 °C |
| CCC(CC)Oc1cc(C)nc(Nc2c(C)cc(C)cc2C)c1CN(C)C.Cl | 85 to 88 °C |
| CCC(CC)Oc1cc(C)nc(Nc2c(C)cc(C)cc2C)c1NC(=O)CCl [Example 124, 2-Chloro-N-[4-(1-ethyl-propoxy)-6-methyl-2-(2,4,6-trimethyl-phenylamino)-pyridin-3-yl]-acetamide] | 79 to 82 °C |
| CCC(CC)Oc1nc(C)nc(Nc2c(C)cc(C)cc2C)c1C(=O)O [Example 160, 4-(1-Ethyl-propoxy)-2-methyl-6-(2,4,6-trimethyl-phenylamino)-pyrimidine-5-carboxylic acid] | 118 to 120 °C |
| Cc1cc(C)c(Oc2nc(C)cc(C(O)C(F)(F)F)c2C)c(C)c1 (centres unmarked) [Example 99, 1-[3,6-Dimethyl-2-(2,4,6-trimethyl-phenoxy)-pyridin-4-yl]-2,2,2-trifluoro-ethanol] | 134 to 139 °C |
| CCC(CC)Oc1cc(C)nc2c1[nH]c(=O)n2-c1c(C)cc(C)cc1C [Example 166, 7-(1-Ethyl-propoxy)-5-methyl-3-(2,4,6-trimethyl-phenyl)-1,3-dihydro-imidazo[4,5-b]pyridin-2-one] | 184 to 186 °C |
| CCC(CC)Oc1nc(C)nc(Nc2c(C)cc(C)cc2C)c1C(N)=O [Example 120, 4-(1-Ethyl-propoxy)-2-methyl-6-(2,4,6-trimethyl-phenylamino)-pyrimidine-5-carboxylic acid amide] | 174 to 176 °C |
| CCOC(=S)SCc1c(OC(CC)CC)cc(C)nc1Nc1c(C)cc(C)cc1C [Example 77, Dithiocarbonic acid O-ethyl ester S-[4-(1-ethyl-propoxy)-6-methyl-2-(2,4,6-trimethyl-phenylamino)-pyridin-3-ylmethyl] ester] | 55 to 57 °C |

The next lines start with the values.

| melting point | SMILES |
| --- | --- |
| 136 to 138 °C | CCC(CC)Nc1cc(C)nc(Nc2c(C)cc(C)cc2C)c1CC(C(=O)OC)C(=O)OC [Example 129, 2-[4-(1-Ethyl-propylamino)-6-methyl-2-(2,4,6-trimethyl-phenylamino)-pyridin-3-ylmethyl]-malonic acid dimethyl ester] |
| 131 to 133 °C | C#CC(CC)Nc1cc(C)nc(Oc2c(C)cc(C)cc2C)c1C(=O)O (centres unmarked) [Example 27, 4-(1-Ethyl-prop-2-ynylamino)-6-methyl-2-(2,4,6-trimethyl-phenoxy)-nicotinic acid] |
| 184 °C | CCC(CC)Nc1cc(C)nc(Oc2c(C)cc(OC)cc2C)c1C(N)=O [Example 262, 4-(1-Ethyl-propylamino)-2-(4-methoxy-2,6-dimethyl-phenoxy)-6-methyl-nicotinamide] |
| 145 to 148 °C | CCC(O)C(CC)Nc1cc(C)nc(Oc2c(C)cc(Cl)cc2C)c1CO (centres unmarked) [Example 26, 4-[2-(4-Chloro-2,6-dimethyl-phenoxy)-3-hydroxymethyl-6-methyl-pyridin-4-ylamino]-hexan-3-ol] |
| 126.5 to 130.5 °C | CCC(COC)Nc1cc(C)nc(Oc2c(C=O)cccc2OC)c1[N+](=O)[O-] (centres unmarked) [Example 1, 3-Methoxy-2-[4-(1-methoxymethyl-propylamino)-6-methyl-3-nitro-pyridin-2-yloxy]-benzaldehyde] |
| 126.8 to 129.5 °C | CCC(COC)Nc1cc(C)nc(Oc2c(OC)cc(OC)cc2OC)c1[N+](=O)[O-] (centres unmarked) [Example 1, (1-Methoxymethyl-propyl)-[6-methyl-3-nitro-2-(2,4,6-trimethoxy-phenoxy)-pyridin-4-yl]-amine] |
| 180 to 182 °C | CCC(Nc1cc(C)nc(Oc2c(C)cc(Cl)cc2C)c1CO)C(C)O (centres unmarked) [Example 25, 3-[2-(4-Chloro-2,6-dimethyl-phenoxy)-3-hydroxymethyl-6-methyl-pyridin-4-ylamino]-pentan-2ol] |
| 183 to 185 °C | CCC(CC)Nc1cc(C)nc(Oc2c(C)cc(C)cc2C)c1NC(=O)CCCl [Example 2, 3-Chloro-N-[4-(1-ethyl-propylamino)-6-methyl-2-(2,4,6-trimethyl-phenoxy)-pyridin-3-yl]-propionamide] |
| 106 to 109 °C | CCC(CC)Oc1cc(C)nc(Oc2c(C)cc(C)cc2C)c1[N+](=O)[O-] [Example 60, 4-(1-Ethyl-propoxy)-6-methyl-3-nitro-2-(2,4,6-trimethyl-phenoxy)-pyridine] |
| 170 to 172 °C | CCC(CC)Nc1cc(C)nc(Oc2c(C)cc(C)cc2C)c1NC(=O)C(C)Cl (centres unmarked) [Example 2, 2-Chloro-N-[4-(1-ethyl-propylamino)-6-methyl-2-(2,4,6-trimethyl-phenoxy)-pyridin-3-yl]-propionamide] |
| 122.6 °C | CCC(Nc1cc(C)nc(Oc2c(C)cc(OC)cc2C)c1C(=O)NC)C(C)OC (centres unmarked) [Example 284, 4-(1-Ethyl-2-methoxy-propylamino)-2-(4-methoxy-2,6-dimethyl-phenoxy)-6,N-dimethyl-nicotinamide] |
| 75 to 76 °C | CCC(COC)Nc1cc(C)nc(Oc2ccc(OC(F)(F)F)cc2)c1[N+](=O)[O-] (centres unmarked) [Example 1, (1-Methoxymethyl-propyl)-[6-methyl-3-nitro-2-(4-trifluoromethoxy-phenoxy)-pyridin-4-yl]-amine] |
| 117 to 119 °C | CCC(CC)Nc1cc(C)nc(Oc2c(C)cc(C)cc2C)c1CN [Example 135, [3-Aminomethyl-6-methyl-2-(2,4,6-trimethyl-phenoxy)-pyridin4-yl]-(1-ethyl-propyl)-amine] |
| 98 to 100 °C | CCC(CC)Oc1cc(C)nc(Nc2c(C)cc(C)cc2C)c1 [Example 90, [4-(1-Ethyl-propoxy)-6-methyl-pyridin-2-yl]-(2,4,6-trimethyl-phenyl)-amine] |
| 204 to 206 °C | CCC(CC)Nc1cc(C)nc(Nc2c(C)cc(C)cc2C)c1C(N)=O [Example 119, 4-(1-Ethyl-propylamino)-6-methyl-2-(2,4,6-trimethyl-phenylamino)-nicotinamide] |
| 158 to 160 °C | CCC(CC)Nc1cc(C)nc2c1nc(N)n2-c1c(C)cc(C)cc1C [Example 170, N7-(1-Ethyl-propyl)-5-methyl-3-(2,4,6-trimethyl-phenyl)-3H-imidazo[4,5-b]pyridine-2,7-diamine] |
| 164.3 °C | CCC(CC)Nc1cc(C)nc(Oc2c(C)cc(C)nc2C)c1C(N)=O [Example 287, 4-(1-Ethyl-propylamino)-6-methyl-2-(2,4,6-trimethyl-pyridin-3-yloxy)-nicotinamide] |
